Measured values from patent publication US20060292683A1, “Cross-beta structures on microbial organisms” (Crossbeta Biosciences B.V., priority 2005, published 2006).

Tests used:
THP-1 monocytes = test: Tissue factor up-regulation in THP-1 monocytes by misfolded proteins; format: cell-based; details: 40 μg/ml glycated hemoglobin or 10 μg/ml amyloid-β(1-40); controls freshly dissolved
Procedure: For tissue factor expression analysis purposes, THP-1 cells were cultured in IMDM without gentamycin and streptomycin. At day 0, one ml of cells was seeded at 1×10^6 cells/ml in the wells of six-well culture plates. At day 1, […] PBS or with cross-beta structure binding compounds ThT, Congo red, tPA and IgIV, as described above, at a cell density of 1.8×10^7/ml (regular culturing conditions). Negative control was buffer. After six hours, the cells were pelleted by centrifugation and resuspended in 100 μl TBS (50 mM Tris-HCl, 150 mM NaCl, pH 7.0-7.3). Next, the cells were frozen and thawed for four subsequent cycles. Cells were centrifuged for ten minutes at 16,000*g and the supernatant was used for analysis of tissue factor (TF) expression. First, protein concentrations were determined using an established protein concentration assay (Bicinchoninic Acid (BCA) Protein Assay). Protein concentrations were equalized between samples with TBS to correct for variations in cell density. […] Conversion of the substrate by activated factor X at 37° C. was recorded in time for 100 minutes, by absorbance readings at 405 nm. As an additional control, factor X activity was assessed with S. aureus cells only, omitting the monocytes. […]

[1] = molecular target: glycated hemoglobin (Hb-AGE) (Homo sapiens, UniProt P68871+P69905); test: ELISA capture of glycated hemoglobin from solution by immobilized finger domains; format: binding; details: immobilized finger domain; not control hemoglobin
Sequence of glycated hemoglobin (Hb-AGE) (P69905 whole entry, the tested form may be a part): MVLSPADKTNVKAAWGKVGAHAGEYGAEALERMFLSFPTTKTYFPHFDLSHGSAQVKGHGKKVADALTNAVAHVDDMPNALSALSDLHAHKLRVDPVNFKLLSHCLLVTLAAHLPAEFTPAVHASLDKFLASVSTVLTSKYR
Sequence of glycated hemoglobin (Hb-AGE) (P68871 whole entry, the tested form may be a part): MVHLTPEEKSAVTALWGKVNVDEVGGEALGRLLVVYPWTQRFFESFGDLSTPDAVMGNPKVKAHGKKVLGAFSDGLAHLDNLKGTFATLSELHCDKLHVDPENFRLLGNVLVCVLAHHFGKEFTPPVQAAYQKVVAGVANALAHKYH

Substance	TF expression in THP-1 monocytes (factor X activation by lysates) (THP-1 monocytes)	capture of glycated hemoglobin in solution [1]
amyloid-β: amyloid-β(1-40) with cross-beta structure conformation	induce elevated levels of TF	–
fibronectin F4-5 with a His-tag: recombinant fibronectin type I domains 4-5, N-terminally tagged to growth hormone and His6-tag, C-terminal His6-tag	–	specifically capture
